Reference: patent US20210000911A1, “COMPOSITIONS AND METHODS FOR PROTECTING EPITHELIAL AND BARRIER INTEGRITY” (OCUNEXUS THERAPEUTICS, INC., priority 2019, published 2021)
Entries after “also recorded” stand apart in the source; their conditions may differ.

Assays:
ARPE-19 cells [1] = test: ZO-1 immunohistochemistry (localisation); assay type: cell-based, Human; details: ARPE-19, HG + cytokines, Peptide5 25 μM, 72 h
Protocol: (§1) Cell Culture—Human adult retinal pigment epithelial cells (ARPE-19; American Type Culture Collection, USA) were cultured in Dulbecco's Modified Eagle Medium Nutrient Mixture F-12 (DMEM-F12; Thermofisher Scientific Inc., USA) supplemented with 10% foetal bovine serum (FBS; Invitrogen, USA) and a 1× antibiotics and antimycotics mixture (AA, 100× stock) at 37° C. in a humidified 5% CO2 incubator. Cells were grown in T75 flasks and the medium was changed twice per week until confluent. […]
(§2) Image analysis and quantification of collagen IV immunolabelling—Images were taken on an Olympus FV1000 confocal laser scanning microscope (Olympus, Japan). […] Both ZO-1 and connexin43 expression were qualitatively assessed for changes in localisation. Collagen IV labelling was quantified from four images taken per well and the experiment was repeated three times. […] The total area covered by collagen IV was then quantified using the ‘measure’ feature in ImageJ. Collagen IV results were expressed as a percentage of untreated (basal) cells.

ARPE-19 cells [2] = test: Trans-epithelial electrical resistance (TEER) of ARPE-19 monolayer after HG and cytokine challenge; assay type: cell-based, Human; details: ARPE-19, HG 32.5 mM + TNF-α and IL-1β 10 ng/mL, Peptide5 25 μM
Protocol: Cell Culture—Human adult retinal pigment epithelial cells (ARPE-19; American Type Culture Collection, USA) were cultured in Dulbecco's Modified Eagle Medium Nutrient Mixture F-12 (DMEM-F12; Thermofisher Scientific Inc., USA) supplemented with 10% foetal bovine serum (FBS; Invitrogen, USA) and a 1× antibiotics and antimycotics mixture (AA, 100× stock) at 37° C. in a humidified 5% CO2 incubator. Cells were grown in T75 flasks and the medium was changed twice per week until confluent.
HG and/or cytokine challenge—At passage 6-12, cells were plated at 2.5×10^5 cells/mL in 8-well chamber slides for immunohistochemical studies, 6-well plates for TEER and FITC-dextran studies or 96-well plates for the […] dehydrogenase (LDH) and ATP release assay until confluent after which the culture medium was changed to treatments in serum-free DMEM-F12 containing 1×AA for 24 h. […]
Measurement of Trans-Epithelial Electrical Resistance (TEER)—Cells were seeded at 2.5×10^5 cells/mL on polyester membranes in Transwell® 6-well plates (Corning Incorporated, USA) in growth medium and incubated for 72 h. […] Net TEER values were calculated by subtracting the resistance in Transwell inserts without cells from the experimental values obtained from chamber containing cells. […] The sample size was three readings per well, repeated three times in separate experiments.

ARPE-19 cells [3] = test: Lactate dehydrogenase (LDH) release assay; assay type: cell-based, Human; details: ARPE-19, HG + cytokines, 72 h
Protocol: as §1
Lactate Dehydrogenase (LDH) assay—Cells were seeded at 2.5×10^5 cells/mL in 96-well plates until confluent after which the culture medium was changed to treatments in serum-free DMEM-F12 containing 1×AA for 72 h. […] The amount of LDH released was assessed using an LDH assay kit as per manufacturer instructions (Sigma-Aldrich, USA). […] A Synergy 2 multi-mode plate reader (BioTek Instruments Inc., USA) was used to measure the absorbance of the formazan dye in the medium at 490 nm (OD490). LDH release (%) was calculated relative to basal conditions.

ARPE-19 cells [4] = test: Connexin43 immunohistochemistry (gap junction plaque localisation); assay type: cell-based, Human; details: ARPE-19, HG + cytokines, 72 h
Protocol: as §1, §2

connexin43 hemichannel = connexin43 hemichannel (human, UniProt P17302 2-382); test: cell-based or functional assay
[5] = Peptide5 25 μM plus exogenous ATP 100 nM

Chain of connexin43 hemichannel (P17302 2-382): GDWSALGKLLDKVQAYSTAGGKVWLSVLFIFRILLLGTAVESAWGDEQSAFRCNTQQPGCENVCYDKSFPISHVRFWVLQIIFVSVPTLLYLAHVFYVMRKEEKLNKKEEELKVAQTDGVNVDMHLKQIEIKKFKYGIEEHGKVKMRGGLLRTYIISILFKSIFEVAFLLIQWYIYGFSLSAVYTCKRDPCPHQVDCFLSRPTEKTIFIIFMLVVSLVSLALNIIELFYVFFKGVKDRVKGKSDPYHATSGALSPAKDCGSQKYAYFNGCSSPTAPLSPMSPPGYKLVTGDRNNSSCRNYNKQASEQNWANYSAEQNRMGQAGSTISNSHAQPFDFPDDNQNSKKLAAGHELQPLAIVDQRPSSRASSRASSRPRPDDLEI

Row | Molecule | ZO-1 localisation at the cell membrane (qualitative) (ARPE-19 cells [1]) | TEER relative to basal conditions (ARPE-19 cells [2]; 48 h) | TEER relative to basal conditions (ARPE-19 cells [2]; 72 h) | LDH release with exogenously added ATP (ARPE-19 cells [3]; [5]) | LDH release relative to basal conditions (ARPE-19 cells [3]; Peptide5 25 μM) | Connexin43 localisation with exogenously added ATP (qualitative) (ARPE-19 cells [4]; [5]) | Connexin43 localisation at the cell membrane (qualitative) (ARPE-19 cells [4]; Peptide5 25 μM) | FITC-dextran permeability at 72 h (% relative to blank wells), ARPE-19 monolayer with HG and cytokines, Peptide5 at 25 uM (connexin43 hemichannel)
1 | H-Val-Asp-Cys-Phe-Leu-Ser-Arg-Pro-Thr-Glu-Lys-Thr-OH (H-VDCFLSRPTEKT-OH) [Peptide5] | maintained ZO-1 localisation to cell membranes similar to basal conditions | no statistically significant difference between Peptide5-treated and basal cells; also recorded: prevented a decrease in TEER at both time-points | no statistically significant difference between Peptide5-treated and basal cells; also recorded: prevented a decrease in TEER at both time-points | once-again increased LDH release; also recorded: LDH levels were increased to injury levels | LDH release remains low; also recorded: prevented LDH release relative to basal conditions; also recorded: reduced by Peptide5 treatment | change in connexin43 gap junction localisation; also recorded: again a loss of connexin43 at cell membranes | protected against the redistribution of connexin43 localisation away from the cell membrane and into the cytoplasm; also recorded: connexin43 is kept in its normal pattern; also recorded: maintained connexin43 primarily in gap junction plaques, similar to basal conditions | 
2 | H-VDCFLSRPTEKT-OH [Peptide5 (H-Val-Asp-Cys-Phe-Leu-Ser-Arg-Pro-Thr-Glu-Lys-Thr-OH)] |  |  |  |  |  |  |  | 33.2%
